According to ChEMBL document CHEMBL5728780, “Cyclic substituted imidazo[4,5-c]quinoline derivatives” (2021):

Target: Leucine-rich repeat serine/threonine-protein kinase 2 (Homo sapiens, UniProt Q5S007)
Experiment: LRRK2 Assay: LRRK2 kinase activity was measured using Lantha Screen technology from Invitrogen. GST-tagged truncated LRRK2 from Invitrogen (Cat #PV4874) was incubated with a fluorescein-labeled peptide substrate based upon ezrin/radixin/moesin (ERM), also known as LRRKtide (Invitrogen cat #PR8976A), in the presence of a dose response of compound. Upon completion, the assay was stopped and detected with a terbium labeled anti-phospho-ERM antibody (Invitrogen, cat #PR8975A). The assay was carried out under the following protocol: The compound dose response was prepared by diluting compound to a top concentration of 0.3 mM in 100% DMSO and serial diluted by half-log in DMSO to give an 11 point curve, 100× final assay concentration. Using Echo acoustic dispensing, 60 nL of compound was transferred to a low volume Corning 384-well assay plate. 3 μL of a working solution of substrate (200 nM LRRKtide, 2 mM ATP) prepared in assay buffer (50 mM HEPES, pH 7.5, 3 mM MgCl2, with 2 mM DTT and 0.01% Brij35 added fresh) was added to the 60 nL compound assay plate. The kinase reaction was started with 3 μL of a working solution of LRRK2 enzyme at a concentration of 4 μg/mL. The final reaction concentrations were 100 nM LRRKtide, 1 mM ATP, 2 μg/mL LRRK2 enzyme and a compound dose response with a top dose of 3 μM. […]

Chain of Leucine-rich repeat serine/threonine-protein kinase 2 (Q5S007 whole entry, looked up, the tested form may be a part): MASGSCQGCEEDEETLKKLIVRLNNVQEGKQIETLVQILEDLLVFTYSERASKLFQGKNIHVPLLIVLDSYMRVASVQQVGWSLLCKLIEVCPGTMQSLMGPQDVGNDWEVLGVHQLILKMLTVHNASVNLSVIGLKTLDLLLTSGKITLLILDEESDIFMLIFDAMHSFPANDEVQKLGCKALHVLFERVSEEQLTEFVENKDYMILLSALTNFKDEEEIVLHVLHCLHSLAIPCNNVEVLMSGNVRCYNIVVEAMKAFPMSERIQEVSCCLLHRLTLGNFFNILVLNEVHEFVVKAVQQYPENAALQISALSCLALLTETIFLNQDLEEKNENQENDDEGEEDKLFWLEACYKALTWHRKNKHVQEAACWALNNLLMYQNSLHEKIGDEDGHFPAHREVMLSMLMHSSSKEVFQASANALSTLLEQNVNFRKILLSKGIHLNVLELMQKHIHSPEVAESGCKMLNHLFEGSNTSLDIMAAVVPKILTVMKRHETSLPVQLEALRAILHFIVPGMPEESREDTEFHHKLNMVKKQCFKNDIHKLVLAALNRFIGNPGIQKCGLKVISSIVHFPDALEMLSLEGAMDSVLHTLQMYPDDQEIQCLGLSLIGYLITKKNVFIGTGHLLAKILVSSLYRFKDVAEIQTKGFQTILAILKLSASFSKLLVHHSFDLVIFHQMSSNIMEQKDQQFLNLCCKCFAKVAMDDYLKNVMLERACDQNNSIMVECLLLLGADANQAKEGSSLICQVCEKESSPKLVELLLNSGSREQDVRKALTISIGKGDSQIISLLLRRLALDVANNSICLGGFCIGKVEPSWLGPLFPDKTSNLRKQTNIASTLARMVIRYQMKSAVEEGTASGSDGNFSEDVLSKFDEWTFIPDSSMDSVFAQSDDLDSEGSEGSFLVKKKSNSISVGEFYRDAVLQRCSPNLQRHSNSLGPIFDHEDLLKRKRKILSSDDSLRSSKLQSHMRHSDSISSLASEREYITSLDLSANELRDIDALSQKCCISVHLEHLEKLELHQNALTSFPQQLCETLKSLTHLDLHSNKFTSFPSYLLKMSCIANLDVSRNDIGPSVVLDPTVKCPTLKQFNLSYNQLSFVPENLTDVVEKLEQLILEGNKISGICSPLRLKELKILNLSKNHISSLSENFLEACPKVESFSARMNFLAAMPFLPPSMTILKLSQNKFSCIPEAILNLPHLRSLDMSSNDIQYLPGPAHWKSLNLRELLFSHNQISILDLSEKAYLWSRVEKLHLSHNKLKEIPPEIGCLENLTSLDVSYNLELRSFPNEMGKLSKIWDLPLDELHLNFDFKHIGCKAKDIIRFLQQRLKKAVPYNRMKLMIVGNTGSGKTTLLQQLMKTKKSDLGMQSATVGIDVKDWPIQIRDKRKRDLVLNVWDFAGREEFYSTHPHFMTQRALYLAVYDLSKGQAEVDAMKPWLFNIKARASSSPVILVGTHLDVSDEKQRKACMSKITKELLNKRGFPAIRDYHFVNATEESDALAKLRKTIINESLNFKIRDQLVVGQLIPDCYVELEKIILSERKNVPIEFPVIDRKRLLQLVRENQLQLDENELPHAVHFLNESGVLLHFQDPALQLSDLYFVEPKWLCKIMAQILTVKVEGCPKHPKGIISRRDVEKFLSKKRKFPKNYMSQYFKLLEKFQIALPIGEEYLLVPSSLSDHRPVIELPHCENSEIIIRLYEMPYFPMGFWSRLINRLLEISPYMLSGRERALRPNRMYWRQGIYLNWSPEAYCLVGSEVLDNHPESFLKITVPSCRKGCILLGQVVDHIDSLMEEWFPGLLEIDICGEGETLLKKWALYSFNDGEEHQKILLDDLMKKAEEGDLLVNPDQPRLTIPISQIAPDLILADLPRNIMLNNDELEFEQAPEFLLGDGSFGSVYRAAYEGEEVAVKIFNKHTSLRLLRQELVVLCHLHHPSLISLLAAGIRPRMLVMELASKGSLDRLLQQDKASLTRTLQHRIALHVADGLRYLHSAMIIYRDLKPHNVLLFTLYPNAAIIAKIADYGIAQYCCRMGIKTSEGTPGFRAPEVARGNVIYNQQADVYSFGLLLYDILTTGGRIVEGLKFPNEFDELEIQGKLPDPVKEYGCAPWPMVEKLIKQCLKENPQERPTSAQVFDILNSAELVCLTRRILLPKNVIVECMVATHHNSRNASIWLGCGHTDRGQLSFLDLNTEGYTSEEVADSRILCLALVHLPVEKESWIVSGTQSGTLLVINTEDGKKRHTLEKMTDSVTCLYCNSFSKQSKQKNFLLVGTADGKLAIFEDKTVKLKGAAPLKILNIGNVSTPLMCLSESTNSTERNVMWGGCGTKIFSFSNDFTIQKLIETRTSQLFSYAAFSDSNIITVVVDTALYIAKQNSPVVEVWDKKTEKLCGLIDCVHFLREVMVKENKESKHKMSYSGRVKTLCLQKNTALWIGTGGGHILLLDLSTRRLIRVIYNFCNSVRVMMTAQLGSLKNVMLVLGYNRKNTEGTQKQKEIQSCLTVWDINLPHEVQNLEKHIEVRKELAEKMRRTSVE

IC50: > 2840 nM
Structure (SMILES): CN1CC[C@@H](n2c(C3CCC(F)C3)nc3cnc4ccc(F)cc4c32)C1 (stereo partly specified)
